# Reference: BindingDB's records for doi:10.7270/Q2TX3CTT (Broad Institute, 2010)
# Target: Glycogen synthase kinase-3 beta (Homo sapiens, UniProt P49841)
# Assay: GSK3beta kinase inhibitor potency, dose response, biochemical, luminescence, cell-free homogeneous, retest (AID 434954)
# Chain of Glycogen synthase kinase-3 beta (P49841 whole entry): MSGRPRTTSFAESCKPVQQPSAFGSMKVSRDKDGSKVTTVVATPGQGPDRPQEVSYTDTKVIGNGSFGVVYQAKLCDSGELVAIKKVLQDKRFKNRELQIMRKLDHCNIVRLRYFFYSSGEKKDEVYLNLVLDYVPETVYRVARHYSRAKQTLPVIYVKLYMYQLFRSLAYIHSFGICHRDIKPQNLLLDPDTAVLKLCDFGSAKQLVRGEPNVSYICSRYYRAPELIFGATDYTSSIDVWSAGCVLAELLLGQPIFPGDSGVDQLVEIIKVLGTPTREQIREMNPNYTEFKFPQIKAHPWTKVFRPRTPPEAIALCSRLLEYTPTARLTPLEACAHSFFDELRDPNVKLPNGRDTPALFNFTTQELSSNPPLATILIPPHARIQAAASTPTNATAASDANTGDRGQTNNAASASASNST
row,EC50 [µM],SMILES
1,> 300,CCOC(=O)CSc1ccc2nnc(-c3cccnc3)n2n1 [SMR000018940]
2,160,CCOC(=O)c1nnn(-c2nonc2N)c1CSc1ccc(C)cc1 [SMR000020597]
3,> 300,CC1CCCN(S(=O)(=O)c2ccc(Br)s2)C1 (stereo unspecified) [SMR000021898]
4,> 300,Cc1nn(Cc2ccc(Cl)c(Cl)c2)c(C)c1NC(=O)c1noc2c1CCCCC2 [SMR000023628]
5,> 300,Cc1ccc(-n2c(C)nc3c(cnn3-c3ccc(F)cc3)c2=O)cc1C [SMR000026457]
6,2.82,CCSc1ccc2nnc(-c3ccc(F)cc3)n2n1 [SMR000028943]
7,> 300,CCOc1ccc(-c2nnc3ccc(SC)nn23)cc1 [SMR000028968]
8,> 300,O=C(O)c1ccccc1NCc1ccncc1 [SMR000031483]
9,> 300,Cc1cc2c(N3CCCCC3C)ncnc2s1 (stereo unspecified) [SMR000033135]
10,> 300,CCOc1cc(C2c3c(C)n[nH]c3C(=O)N2c2ccc(C)cc2)ccc1O (stereo unspecified) [SMR000035605]
11,> 300,COc1ccc(C2C3=C(CC(C)(C)CC3=O)Nc3c2c(=O)nc2nc(C)[nH]n32)cc1 (stereo unspecified) [SMR000035838]
12,3.3,N#Cc1c(N2CCCCC2)nc(N2CCCCC2)c2c1CCN(Cc1ccccc1)C2 [SMR000036037]
13,> 300,Cc1nnc2n(-c3ccccc3)c(=O)c3c4c(sc3n12)COC(C)(C)C4 [SMR000038952]
14,21.4,CC1(C)Nc2ccc(O)cc2-c2c1ssc2=S [SMR000038969]
15,> 300,O=c1c2[nH]c3ccccc3c2ncn1C1CCCCC1 [SMR000039546]
16,> 300,CN1CCc2c(sc3c2c(=O)n(-c2ccccc2)c2nnc(SCc4ccccc4)n32)C1 [SMR000039895]
17,> 300,CC1CCN(c2oc(-c3ccccc3Cl)nc2C#N)CC1 [SMR000041709]
18,> 300,CN1CCc2c(sc3c2c(=O)n(-c2ccc(Cl)cc2)c2nncn32)C1 [SMR000042939]
19,10.4,N#Cc1c(-c2cccs2)cc(-c2cccnc2)nc1N [SMR000043147]
20,> 300,CCCCC(=O)Nc1nn(CC(C)C)c2nc3ccccc3cc12 [SMR000043369]
21,> 300,CCCn1nc(NC(=O)CC(C)C)c2cc3ccccc3nc21 [SMR000043522]
22,> 300,CCCCc1cc(=O)oc2cc(C)cc(OC(C)C(=O)O)c12 (stereo unspecified) [SMR000043773]
23,167,O=C1c2ccccc2-c2onc3ccc(NCCCn4ccnc4)c1c23 [SMR000044769]
24,> 300,CN1CCc2c(sc3c2c(=O)n(-c2ccccc2)c2nnc(SCc4ccc(Cl)cc4)n32)C1 [SMR000045323]

row,EC50 [µM],SMILES
1,> 300,CN1CCc2c(sc3c2c(=O)n(-c2ccccc2)c2nncn32)C1 [SMR000045494]
2,9.23,CCCCn1nc(NC(=O)c2cccs2)c2cc3cc(OC)ccc3nc21 [SMR000046614]
3,> 300,CCOc1cc(C2c3c(n[nH]c3C)C(=O)N2c2ccc(Br)cc2)ccc1O (stereo unspecified) [SMR000059772]
4,> 300,O=C(CSc1nnc(-c2ccncc2)n1-c1ccc(F)cc1)NC(=O)NCc1ccco1 [SMR000065428]
5,> 300,COc1ccc(-c2nn(-c3ccccc3)cc2C=Nn2cnnc2)cc1OC [SMR000066046]
6,> 300,CN(C)Cc1c(O)ccc2occ(C(=O)c3ccccc3)c12 [SMR000069709]
7,> 300,O=C(NCC1COc2ccccc2O1)c1ccccc1 (stereo unspecified) [SMR000069822]
8,> 300,COCCNC(=O)c1ccc(Cl)c(Cl)c1 [SMR000069998]
9,> 300,COc1ccc(C(O)c2coc3ccc(O)c(CN(C)C)c23)cc1 (stereo unspecified) [SMR000070308]
10,> 300,O=C(N1CCN(c2ccccc2F)CC1)C12CC3CC(CC(C3)C1)C2 [SMR000071700]
11,> 300,O=C(NCc1ccccn1)c1ccc(Cn2cc(Br)cn2)o1 [SMR000073000]
12,> 300,Cc1ccc(S(=O)(=O)N(C)CC(=O)N2CCCc3ccccc32)cc1 [SMR000076264]
13,> 300,Cc1ccc(C(=O)Nc2ccccc2C(=O)NCc2ccco2)cc1S(=O)(=O)N1CCCCC1 [SMR000076380]
14,> 300,O=C(Nc1ccccc1C(=O)N1CCOCC1)C1CCCO1 (stereo unspecified) [SMR000077483]
15,30.2,O=C(Nc1nccs1)C1CCCN1S(=O)(=O)c1cccc2cccnc12 (stereo unspecified) [SMR000096012]
16,21.6,COc1ccc2occ(C(=O)c3ccc(N=C(C)N(C)C)cc3)c2c1 [SMR000104711]
17,> 300,CC1(C)CC(=O)C=C(Nc2ccccc2F)C1 [SMR000105669]
18,> 300,CC(=O)Oc1ccc2occ(C(=O)c3cccs3)c2c1 [SMR000106284]
19,> 300,CCCOC(=O)c1ccc(O)cc1 [SMR000112070]
20,> 300,CCN(CC)C(=O)CSc1nc(N)c(C#N)c(-c2cccs2)c1C#N [SMR000115110]
21,> 300,Nc1c(C(=O)c2ccccc2)sc(Nc2ccccc2)c1S(=O)(=O)c1ccccc1 [SMR000115215]
22,6.72,COc1ccc2c(c1)-c1c(ssc1=S)C(C)(C)N2 [SMR000116363]
23,> 300,CCOc1ccc2c(c1)-c1c(ssc1=S)C(C)(C)N2 [SMR000116364]
24,> 300,CCOc1cc(C)cc2oc(=O)cc(-c3ccccc3)c12 [SMR000116517]

row,EC50 [µM],SMILES
1,> 300,O=c1oc(-c2cccs2)nc2sc3c(c12)CCCC3 [SMR000116853]
2,> 300,Cn1c(=O)c2[nH]c(CN3CCN(Cc4ccccc4)CC3)nc2n(C)c1=O [SMR000120891]
3,4.54,O=C(CCl)Oc1ccc2occ(C(=O)c3cccs3)c2c1 [SMR000121351]
4,> 300,Cc1cc(OCC(F)(F)C(F)(F)C(F)(F)C(F)F)nc(N)n1 [SMR000122155]
5,> 300,COCC/N=C1\Sc2nc3c(C)cccc3cc2CN1Cc1ccco1 [SMR000122349]
6,> 300,CC(C)CC(=O)Nc1ccccc1-c1nnn(CC(=O)N2CCc3ccccc3C2)n1 [SMR000122537]
7,> 300,COCCn1nnnc1C(c1cc2cc(C)ccc2[nH]c1=O)N1CCc2ccccc21 (stereo unspecified) [SMR000122998]
8,> 300,Cc1ccc(C(=O)Nc2ccc(S(=O)(=O)NCc3ccco3)cc2)cc1 [SMR000123393]
9,39,CC1CCc2c(sc3nn[nH]c(=O)c23)C1 (stereo unspecified) [SMR000124179]
10,> 300,COc1ccc(-c2nn(-c3ccccc3)cc2C(=O)O)cc1OC [SMR000124387]
11,> 300,CCOc1ccc(N2C(=O)C(=Nc3ccccc3O)C(Cl)C2=O)cc1 (stereo unspecified) [SMR000124402]
12,> 300,O=C1CCCc2oc3ccc(O)cc3c21 [SMR000125008]
13,> 300,O=C(NCc1cccs1)c1cc(C2CC2)on1 [SMR000127641]
14,> 300,O=C(C(Cc1ccccc1)n1cccc1)N1CCN(c2cccc(Cl)c2)CC1 (stereo unspecified) [SMR000127921]
15,29,CCOC(=O)c1cnc2ccc(OCC)cc2c1N1CCN(c2ccccc2)CC1 [SMR000130091]
16,> 300,COc1ccc(C2=NOC(C(=O)Nc3cccnc3)C2)cc1 (stereo unspecified) [SMR000130842]
17,> 300,CN1CCc2[nH]c3ccc(C(=O)NN)cc3c2C1 [SMR000131639]
18,> 300,COc1ccc(OC)c(C(=O)c2coc3ccc(OCC(=O)O)cc23)c1 [SMR000135205]
19,25.4,Cc1cc(-c2n[nH]c3c2C(c2cccc(O)c2)C(C#N)C(=N)O3)c(C)s1 (stereo unspecified) [SMR000136653]
20,17.4,Cc1ccc(Cc2cnc(NC(=O)C3CCCO3)s2)cc1 (stereo unspecified) [SMR000141246]
21,> 300,Cc1cc(OC(C)C)c2c(-c3ccccc3)cc(=O)oc2c1 [SMR000141385]
22,> 300,Oc1ccc(CNCC2COc3ccccc3O2)cc1 (stereo unspecified) [SMR000145120]
23,> 300,Cc1ccc(S(=O)(=O)N2CN(Cc3ccco3)c3nc4ccccc4nc32)cc1 [SMR000145587]
24,> 300,N#Cc1c(N)nc2c(c1N)=C(N)SC1=NC(=O)CC(c3ccccc3)C=21 (stereo unspecified) [SMR000147833]

row,EC50 [µM],SMILES
1,> 300,Cc1ccc(CNc2nc(N)c([N+](=O)[O-])c(Nc3cccc(F)c3)n2)cc1 [SMR000148340]
2,> 300,Cc1ccc2cc3c(NC(=O)C4CCCO4)nn(CC(C)C)c3nc2c1 (stereo unspecified) [SMR000148634]
3,> 300,CCCn1nc(NC(=O)C2CCCO2)c2cc3cc(C)ccc3nc21 (stereo unspecified) [SMR000148635]
4,> 300,Cc1ccc2nc3c(cc2c1)c(NC(=O)C1CCCO1)nn3CC(C)C (stereo unspecified) [SMR000148636]
5,> 300,CSc1nc(NCC(C)C)c2c3c(sc2n1)CN(C)CC3 [SMR000148856]
6,> 300,CSCCC(C(=O)NCc1cccs1)N1C(=O)c2ccccc2C1=O (stereo unspecified) [SMR000150898]
7,> 300,Cc1nn(-c2ccccn2)c2c1C(c1ccncc1)C1C(=O)CC(C)(C)CC1=N2 (stereo unspecified) [SMR000152057]
8,> 300,CC(Cl)C(=O)Nc1ncc(C(F)(F)F)cc1Cl (stereo unspecified) [SMR000152526]
9,> 300,CCc1nnc(NC(=O)c2cc(-c3ccccc3)nn2-c2ccccc2)s1 [SMR000152662]
10,> 300,CCNC(=O)NC(=O)CSc1nc2ccccc2n1CCOC [SMR000154706]
11,> 300,Cc1c(CCOC(=O)CC23CC4CC(CC(C4)C2)C3)sc[n+]1CC(=O)c1ccc(Br)cc1 [SMR000155561]
12,20.9,COc1ccc(C(=O)ON=C(C)c2ccccc2)cc1 [SMR000159704]
13,> 300,COc1ccc(-c2ccc3c(N)c(C(=O)c4cccc(OC)c4)sc3n2)cc1 [SMR000160395]
14,> 300,O=c1c2c3c(sc2nc2n1N=C(c1cccs1)CS2)CCCC3 [SMR000161302]
15,> 300,Cc1cccc(NC(=O)CSc2nc(O)c(C#N)c(-c3ccccc3)n2)c1C [SMR000161905]
16,> 300,N#Cc1c(-c2ccccc2)nc(-c2ccccc2)[nH]c1=O [SMR000168447]
17,> 300,COc1ccc(-c2nc(-c3ccccc3)[nH]c(=O)c2C#N)cc1 [SMR000168458]
18,51.5,CCOC(=O)C1=C(C)NC(=O)C1=CNc1ccccc1 [SMR000168580]
19,> 300,O=NCc1ccc(SCc2ccccc2)c([N+](=O)[O-])c1 [SMR000169144]
20,46.3,CSc1nc2ncc3c(n2n1)CC1c2ccccc2CCN1C3=O (stereo unspecified) [SMR000169664]
21,> 300,CCn1c(/C=C/N(C)c2ccccc2)[n+](CC)c2cc(Cl)ccc21 [SMR000173749]

row,SMILES,EC50 [µM]
1,Cc1nonc1-c1nnc(-c2nonc2N)[nH]1 [SMR000040798],29.7
2,O=C1NC(c2cccnc2)Nc2sc3c(c21)CCCC3 (stereo unspecified) [SMR000114421],> 300
3,COc1cc2c(cc1O)C[C@H]1NCCc3cc4c(c-2c31)OCO4 [SMR000156298],16.3
